Assay results as given in patent US9801901B2, “Alginate oligomers for use in overcoming multidrug resistance in bacteria” (priority 2009, dated 2017).
Values after ≈ are worked out from the molar mass of the structure shown. Read-outs that look alike come from different tables or passages of the source.

How the values were obtained:
[1] = tested on: strains of E. coli displaying MDR phenotypes; assay: MIC-assay, Mueller-Hinton broth with G-block alginate, 384-well, OD600 (Table 11); assay type: cell-based; conditions: Escherichia coli, Escherichia coli (5702, Wales, V11) MDR, read-out: MIC
Excerpt: (§1) Minimum inhibitory concentration (MICs) of different antibiotics for strains of E. coli and Providencia stuartii displaying MDR phenotypes in the presence of varying concentrations of OligoCF-5/20 (0-10%). (MIC values are expressed in μg ml^−1).

MDR Providencia stuartii = assay: as above; assay type: cell-based; conditions: Providencia stuartii (IR57 India, V7) MDR
Excerpt: as §1

[2] = tested on: Burkholderia cepacia (1322, V23); assay: MIC-assay, Mueller-Hinton broth with G-block alginate, 384-well, OD600
[3] = tested on: Acinetobacter lwoffii (6056, V22); assay: as above
[4] = tested on: Acinetobacter baumannii (MDR ACB, Libya, V4); assay: as above
[5] = tested on: Pseudomonas aeruginosa (MDR 301, PSA, V2); assay: as above
[6] = tested on: strains of Klebsiella pneumoniae displaying MDR phenotypes; assay: MIC-assay, Mueller-Hinton broth with G-block alginate, 384-well, OD600 (Table 10); assay type: cell-based; conditions: read-out: MIC
Excerpt: Minimum inhibitory concentration (MICs) of different antibiotics for strains of Klebsiella pneumoniae displaying MDR phenotypes in the presence of varying concentrations of OligoCF-5/20 (0-10%). (MIC values are expressed in μg ml^−1).

[7] = Table 8, G-block (OligoCF-5/20) 0%
[8] = Table 8, G-block (OligoCF-5/20) 2%
[9] = Table 8, G-block (OligoCF-5/20) 6%
[10] = Table 8, G-block (OligoCF-5/20) 10%
[11] = Table 9, G-block (OligoCF-5/20) 0%
[12] = Table 9, G-block (OligoCF-5/20) 2%
[13] = Table 9, G-block (OligoCF-5/20) 6%
[14] = Table 9, G-block (OligoCF-5/20) 10%
[15] = Pseudomonas aeruginosa, Table 8, V2, G-block (OligoCF-5/20) 0%
[16] = Pseudomonas aeruginosa, Table 8, V2, G-block (OligoCF-5/20) 2%
[17] = Klebsiella pneumoniae (5712, Wales, V12) MDR, G-block (OligoCF-5/20) 0%
[18] = Klebsiella pneumoniae (5712, Wales, V12) MDR, G-block (OligoCF-5/20) 2%
[19] = Klebsiella pneumoniae (5712, Wales, V12) MDR, G-block (OligoCF-5/20) 6%
[20] = Klebsiella pneumoniae (5712, Wales, V12) MDR, G-block (OligoCF-5/20) 10%
[21] = Klebsiella pneumoniae (IR25, India, V6) MDR, G-block (OligoCF-5/20) 0%
[22] = Klebsiella pneumoniae (IR25, India, V6) MDR, G-block (OligoCF-5/20) 2%
[23] = Klebsiella pneumoniae (IR25, India, V6) MDR, G-block (OligoCF-5/20) 6%
[24] = Klebsiella pneumoniae (IR25, India, V6) MDR, G-block (OligoCF-5/20) 10%
[25] = Klebsiella pneumoniae (K3, India, V8) MDR, G-block (OligoCF-5/20) 0%
[26] = Klebsiella pneumoniae (K3, India, V8) MDR, G-block (OligoCF-5/20) 2%
[27] = Klebsiella pneumoniae (K3, India, V8) MDR, G-block (OligoCF-5/20) 6%
[28] = Klebsiella pneumoniae (K3, India, V8) MDR, G-block (OligoCF-5/20) 10%
[29] = Pseudomonas aeruginosa, Table 8, V2, G-block (OligoCF-5/20) 6%
[30] = Pseudomonas aeruginosa, Table 8, V2, G-block (OligoCF-5/20) 10%

| MIC ([1]; G-block (OligoCF-5/20) 0%) | MIC ([1]; G-block (OligoCF-5/20) 2%) | MIC ([1]; G-block (OligoCF-5/20) 6%) | MIC ([1]; G-block (OligoCF-5/20) 10%) | MIC (MDR Providencia stuartii; G-block (OligoCF-5/20) 0%) | MIC (MDR Providencia stuartii; G-block (OligoCF-5/20) 2%) | MIC (MDR Providencia stuartii; G-block (OligoCF-5/20) 6%) | MIC (MDR Providencia stuartii; G-block (OligoCF-5/20) 10%) | MIC [2, 7] | MIC [2, 8] | MIC [2, 9] | MIC [2, 10] | MIC [3, 11] | MIC [3, 12] | MIC [3, 13] | MIC [3, 14] | MIC [4, 11] | MIC [4, 12] | MIC [4, 13] | MIC [4, 14] | SMILES | also measured |
| --- | --- | --- | --- | --- | --- | --- | --- | --- | --- | --- | --- | --- | --- | --- | --- | --- | --- | --- | --- | --- | --- |
| 128 µg/mL (≈ 153 µM) | 64 µg/mL (≈ 76.6 µM) | 32 µg/mL (≈ 38.3 µM) | 64 µg/mL (≈ 76.6 µM) | 8 µg/mL (≈ 9.58 µM) | 4 µg/mL (≈ 4.79 µM) | 4 µg/mL (≈ 4.79 µM) | 2 µg/mL (≈ 2.39 µM) | 256 µg/mL (≈ 307 µM) | 256 µg/mL (≈ 307 µM) | 128 µg/mL (≈ 153 µM) | 64 µg/mL (≈ 76.6 µM) | < 2 µg/mL | < 2 µg/mL | < 2 µg/mL | < 2 µg/mL | 64 µg/mL (≈ 76.6 µM) | 8 µg/mL (≈ 9.58 µM) | 2 µg/mL (≈ 2.39 µM) | < 1 µg/mL | CC[C@H]1OC(=O)[C@H](C)[C@@H](O[C@H]2C[C@@](C)(OC)[C@@H](O)[C@H](C)O2)[C@H](C)[C@@H](O[C@@H]2O[C@H](C)C[C@H](N(C)C)[C@H]2O)[C@](C)(O)C[C@@H](C)[C@@H]2N[C@@H](COCCOC)O[C@H]([C@H]2C)[C@]1(C)O [Dirithromycin] | MIC [5, 15]: > 512 µg/mL; MIC [5, 16]: > 512 µg/mL; MIC [5, 29]: 512 µg/mL (≈ 613 µM); MIC [5, 30]: 512 µg/mL (≈ 613 µM); MIC [6, 17]: 128 µg/mL (≈ 153 µM); MIC [6, 18]: 64 µg/mL (≈ 76.6 µM); MIC [6, 19]: 64 µg/mL (≈ 76.6 µM); MIC [6, 20]: 32 µg/mL (≈ 38.3 µM); MIC [6, 21]: 1020 µg/mL (≈ 1230 µM); MIC [6, 22]: 1020 µg/mL (≈ 1230 µM); MIC [6, 23]: 512 µg/mL (≈ 613 µM); MIC [6, 24]: 256 µg/mL (≈ 307 µM); MIC [6, 25]: 256 µg/mL (≈ 307 µM); MIC [6, 26]: 128 µg/mL (≈ 153 µM); MIC [6, 27]: 128 µg/mL (≈ 153 µM); MIC [6, 28]: 128 µg/mL (≈ 153 µM) |
| 512 µg/mL (≈ 612 µM) | 128 µg/mL (≈ 153 µM) | 256 µg/mL (≈ 306 µM) | 512 µg/mL (≈ 612 µM) | 64 µg/mL (≈ 76.5 µM) | 32 µg/mL (≈ 38.2 µM) | 32 µg/mL (≈ 38.2 µM) | 32 µg/mL (≈ 38.2 µM) | 512 µg/mL (≈ 612 µM) | 512 µg/mL (≈ 612 µM) | 256 µg/mL (≈ 306 µM) | 64 µg/mL (≈ 76.5 µM) | 4 µg/mL (≈ 4.78 µM) | < 2 µg/mL | < 2 µg/mL | < 2 µg/mL | 128 µg/mL (≈ 153 µM) | 32 µg/mL (≈ 38.2 µM) | 16 µg/mL (≈ 19.1 µM) | 16 µg/mL (≈ 19.1 µM) | CC[C@H]1OC(=O)[C@H](C)[C@@H](O[C@H]2C[C@@](C)(OC)[C@@H](O)[C@H](C)O2)[C@H](C)[C@@H](O[C@@H]2O[C@H](C)C[C@H](N(C)C)[C@H]2O)[C@](C)(O)C[C@@H](C)/C(=N\OCOCCOC)[C@H](C)[C@@H](O)[C@]1(C)O [Roxithromycin] | MIC [5, 15]: > 512 µg/mL; MIC [5, 16]: > 512 µg/mL; MIC [5, 29]: > 512 µg/mL; MIC [5, 30]: > 512 µg/mL; MIC [6, 17]: 256 µg/mL (≈ 306 µM); MIC [6, 18]: 512 µg/mL (≈ 612 µM); MIC [6, 19]: 512 µg/mL (≈ 612 µM); MIC [6, 20]: 512 µg/mL (≈ 612 µM); MIC [6, 21]: 1020 µg/mL (≈ 1220 µM); MIC [6, 22]: > 1020 µg/mL; MIC [6, 23]: 1020 µg/mL (≈ 1220 µM); MIC [6, 24]: > 1020 µg/mL; MIC [6, 25]: 512 µg/mL (≈ 612 µM); MIC [6, 26]: 256 µg/mL (≈ 306 µM); MIC [6, 27]: > 1020 µg/mL; MIC [6, 28]: > 1020 µg/mL |

| SMILES | MIC ([1]; G-block (OligoCF-5/20) 0%) | MIC ([1]; G-block (OligoCF-5/20) 2%) | MIC ([1]; G-block (OligoCF-5/20) 6%) | MIC ([1]; G-block (OligoCF-5/20) 10%) | MIC (MDR Providencia stuartii; G-block (OligoCF-5/20) 0%) | MIC (MDR Providencia stuartii; G-block (OligoCF-5/20) 2%) | MIC (MDR Providencia stuartii; G-block (OligoCF-5/20) 6%) | MIC (MDR Providencia stuartii; G-block (OligoCF-5/20) 10%) | MIC [2, 7] | MIC [2, 8] | MIC [2, 9] | MIC [2, 10] | MIC [3, 11] | MIC [3, 12] | MIC [3, 13] | MIC [3, 14] | MIC [4, 11] | MIC [4, 12] | MIC [4, 13] | MIC [4, 14] | also measured |
| --- | --- | --- | --- | --- | --- | --- | --- | --- | --- | --- | --- | --- | --- | --- | --- | --- | --- | --- | --- | --- | --- |
| C[C@@H](O)[C@H]1C(=O)N2C(C(=O)O)=C(SCCN=CN)C[C@H]12 [Imipenem] | < 2 µg/mL | < 2 µg/mL | < 2 µg/mL | < 2 µg/mL | 16 µg/mL (≈ 53.4 µM) | 16 µg/mL (≈ 53.4 µM) | 16 µg/mL (≈ 53.4 µM) | 8 µg/mL (≈ 26.7 µM) | > 16 µg/mL | 16 µg/mL (≈ 53.4 µM) | 16 µg/mL (≈ 53.4 µM) | 16 µg/mL (≈ 53.4 µM) | 2 µg/mL (≈ 6.68 µM) | 2 µg/mL (≈ 6.68 µM) | 2 µg/mL (≈ 6.68 µM) | < 2 µg/mL | 2 µg/mL (≈ 6.68 µM) | 2 µg/mL (≈ 6.68 µM) | 2 µg/mL (≈ 6.68 µM) | < 2 µg/mL | MIC ([5]; Pseudomonas aeruginosa): 128 µg/mL (≈ 428 µM); MIC [5, 15]: 256 µg/mL (≈ 855 µM); MIC [5, 16]: 256 µg/mL (≈ 855 µM); MIC ([5]; Table 8, V2, G-block (OligoCF-5/20) 10%): 128 µg/mL (≈ 428 µM); MIC [6, 17]: < 2 µg/mL; MIC [6, 18]: < 2 µg/mL; MIC [6, 19]: < 2 µg/mL; MIC [6, 20]: < 2 µg/mL; MIC [6, 21]: < 2 µg/mL; MIC [6, 22]: 2 µg/mL (≈ 6.68 µM); MIC [6, 23]: 2 µg/mL (≈ 6.68 µM); MIC [6, 24]: 2 µg/mL (≈ 6.68 µM); MIC [6, 25]: 8 µg/mL (≈ 26.7 µM); MIC [6, 26]: 16 µg/mL (≈ 53.4 µM); MIC [6, 27]: 16 µg/mL (≈ 53.4 µM); MIC [6, 28]: 8 µg/mL (≈ 26.7 µM) |
